Laboratory results: patent US20240207308A1, “METHOD FOR CULTURING DENDRITIC CELLS” (NANOFAENTECH CO., LTD., priority 2021, published 2024)

Tests used:
Format in all cases: cell-based, mouse
spleen dendritic cells [1] = experiment: CD86 expression of spleen dendritic cells after immunostimulant (LPS or poly (I:C)), flow cytometry
Description: In FIG. 14, the expression level of CD86 in spleen primary dendritic cells cultured for 24 hours was measured similarly to the expression level of CD86 increased when E. coli LPS as an activation-inducing agent was used for treatment at a concentration of 1 μg/mL. […] CD86 expression of spleen dendritic cells cultured with addition of fibronectin was not increased even when 1 μg/mL LPS was treated.
In FIG. 20, compared to LPS binding to Toll-like receptor-4 of immune cells and inflammatory cells including dendritic cells, when poly (I:C) (polyinosinic:polycytidylic acid), which is similar to double-stranded RNA in terms of structure and is known as an immunostimulant that binds to Toll-like receptor-3, was administered at a concentration of 50 μg/mL, the increase in the expression of CD86 in spleen dendritic cells was inhibited when cultured with addition of fibronectin.

spleen dendritic cells [2] = experiment: Fluorescence staining of CD86 in spleen dendritic cells, confocal microscope; conditions: 24 hours
Description: In FIG. 11, culturing spleen dendritic cells (2×10^5/mL) and the prepared peptides were added at a concentration of 200 μg/mL, respectively, and after 6 hours, the expression level of CD86 using a PE-conjugated anti-CD86 antibody (eBioscience) was measured through a confocal microscope after fluorescence staining. After culturing spleen primary dendritic cells for a certain period of time, intracellular CD86, F-actin and nuclear staining was implemented. Expression of actin was stained with FITC-conjugated phalloidin (eBioscience), and nuclear staining was conducted with Hoechst 33342 (Sigma-Aldrich). For this purpose, cells cultured in a 48-well plate were placed in a 4% paraformaldehyde fixing solution, and then fixed at room temperature for 20 minutes.
Then, after washing twice with phosphate buffered saline solution, it was permeabilized with 0.1% Triton X-100 (Sigma-Aldrich) solution at room temperature for 5 minutes and washed twice with phosphate buffered saline solution. In order to remove non-specific staining, after reacting with 0.2% bovine serum albumin (Sigma-Aldrich) solution at room temperature for 20 minutes, it was washed twice with phosphate buffered saline solution. After that, the anti-CD86 antibody and phalloidine were diluted in 0.2% bovine serum albumin solution at a ratio of 1:40 and reacted for 40 minutes, washed 3 times with Tris buffer, placed on a slide glass, followed by counter-staining with Hoechst 33342 solution for nuclear staining of cells. After sealing with a cover glass, the cells were observed using a confocal laser microscope (K1 nanoscope).
In FIG. 26, spleen dendritic cells (2×10^5/mL) were dispensed in a 48-well plate, and linker peptides were each added at a concentration of 400 μg/mL, followed by culturing for 24 hours. Activation of spleen dendritic cells was induced by adding 1 μg/mL of LPS to the culture medium. The cultured cells were placed in a 4% paraformaldehyde fixing solution and fixed at room temperature for 20 minutes. After fluorescence staining using PE-conjugated anti-CD86 antibody (eBioscience), it was measured with a confocal microscope (K1 Nanoscope, Korea). Intracellular actin expression was stained with FITC-conjugated phalloidin (eBioscience), and nuclear staining was conducted with Hoechst 33342 (Sigma-Aldrich). CD86 antibody and phalloidin were diluted 1:40 in 0.2% bovine serum albumin solution and used.

[3] = tested on: spleen T cells from Balb/c mice; experiment: Mixed lymphocyte reaction: proliferation of CFSE-stained allogeneic T cells co-cultured with spleen dendritic cells; conditions: dendritic cells cultured with the substance and activated with LPS or poly (I:C), co-culture 1:20, 4 days
Description: Since the main role of activated dendritic cells is to induce antigen-specific T-cell activation and proliferation according to the stimulatory properties, it was investigated whether self-activated dendrite cells after culturing and dendritic cells activated with LPS after culturing with addition of peptides can induce T cell proliferation by mixed lymphocyte reaction (MLR) test. The spleen dendritic cells isolated from C57B/L6 mice were self-activated for 24 hours, otherwise, when cultured with addition of peptides or fibronectin, the cells were treated with LPS and activated. Spleen T cells from Balb/c mice were isolated using a CD4^+/CD8^+ T cell isolation kit (Miltenyi Biotec, Bergisch-Gladbach, Germany) and MACS column (Miltenyi Biotec), followed by 10 μM CFSE staining (Molecular Probes; Thermo Fisher Scientific Inc., USA). The activated dendritic cells and CFSE-stained T cells were co-cultured at a ratio of 1:20 for 4 days, and the T cell proliferation level was measured as a percentage of cells with decreased CFSE. […] In FIG. 22, the amount of cytokines secreted after co-culture of spleen dendritic cells and T cells for 4 days was measured by ELISA method. […]

fibronectin
expression of CD86 by LPS stimulation (spleen dendritic cells [1]; cultured 24 hours with the substance, 1 μg/mL LPS): not increased | increase in the expression of CD86 by poly (I:C) (spleen dendritic cells [1]; poly (I:C) 50 μg/mL, 24 hours, peptides 200 μg/mL each): inhibited | CD86-expressing cells (spleen dendritic cells [2]; with 1 μg/mL LPS): almost not measured | CD86-expressing cells (spleen dendritic cells [2]; without LPS, linker peptides 400 μg/mL): almost not observed | T cell proliferation (cells with decreased CFSE) [3]: not inducing T cell proliferation
